For 10 compounds, EC50 and IC50 results are on record in patent US20120208809A1, “9H-PYRROLO[2,3-B: 5,4-C'] DIPYRIDINE AZACARBOLINE DERIVATIVES, PREPARATION THEREOF, AND THERAPEUTIC USE THEREOF” (SANOFI, priority 2009, published 2012).

pEC50, pIC50: −log10 of the molar value.

In one assay the test system is MV4-11. Nature of the assay: Cell viability assay (CellTiter-Blue), MV4-11. Format: cell-based. The settings on record: Homo sapiens, read-out: EC50 MV4-11 μM (acute myeloid leukemia), MV4-11 cells, read-out: EC50 MV4-11 μM (myeloma). The procedure:
(§1) The representative compounds of the invention are also screened as regards their effects on cell proliferation and viability, using a variety of tumoral cell lines of human source, representative of different pathological indications. These cell lines include:
(§2) In order to measure the viability, the tumour cells are incubated in 96-well or 384-well format for 48, 72 or 96 hours, preferably 72 hours, with a compound of the invention at dilutions of a factor 3, with, in general, nine doses in total, the highest dose being equal to 10 μM or 30 μM. The cell viability is evaluated by adding CellTiter-Blue® (Promega, Madison, Wis., United States) for 4 hours and endpoint readings are taken using a SpectraMax Genmini EM plate reader (Molecular Devices, Sunnyvale, Calif., United States). The CellTiter-Blue® cell viability assay measures the ability of the cells in culture to reduce resazurin to resorufin, the intensity of the fluorescence signal being directly proportional to the number of live cells. The EC50 represents the concentration of compound that leads to a 50% reduction of the viability/proliferative expansion of the cells.
On the technique in general: Resazurin is reduced to fluorescent resorufin, in cell work by metabolically active cells.

The target of the next assay is T1, Pim-1 (Homo sapiens, UniProt P11309).
T1 construct: full-length human recombinant His6-labelled Pim-1, Pim-2 or Pim-3 protein; His6; made in house
Nature of the assay: TR-FRET assay of Pim kinase activity (phosphorylation of Bad Ser112), Pim-1. It is filed as biochemical. The settings on record: ATP 40 μM, read-out: IC50 Pim1. In short, it runs like this:
(§3)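 Full-length His6-tagged human Pim-1, -2 or -3 phosphorylate full-length His6-Bad at 40 μM ATP; phospho-Ser112 detected by TR-FRET (Eu anti-phosphoBad, APC anti-His6), 665/615 nm ratio. Compounds run at 10 concentrations in duplicate, typically top 30 μM; IC50 from 4-parameter logistic fit.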
On the technique in general: Time-resolved FRET reads energy transfer from a long-lived donor to a nearby acceptor.

The subject of a further assay is phosphoBAD (DND-41). Nature of the assay: Level of phosphorylation of Bad by ELISA, DND-41 cell line. Format: cell-based. The settings on record: Homo sapiens, DND41, DND-41 cells, 3 hours at 37° C. Here is the method:
The activity of the molecules is evaluated on the JEKO or DND-41 cell line by measuring the level of phosphorylation of Bad and the total Bad content, via the ELISA technique.
The JEKO or DND-41 cells are resuspended at a concentration of 500 000 cells per ml. The cells are then diluted in RPMI-1640 medium containing 20% foetal calf serum. 225 μl of cells are placed in a plate. Serial dilutions of the molecules are then performed (8 points, three-fold dilution, range started at 10 mM). Each dilution point is then diluted to 1/100 in medium. Next, 25 μl of each of the concentrations are added to the cells and then incubated for 3 hours at 37° C.
100 μl of the cells are transferred into a plate treated with poly-D-Lysine. The plate is then incubated for 5-10 minutes at 37° C. and then centrifuged for 5 minutes at 1500 rpm. A volume of 100 μl of 8% fixing solution (solution of formaldehyde in PBS buffer) is added to each of the wells. After covering with a self-adhesive film and a lid, the plate is incubated for 20 minutes at room temperature and then stored at 4° C. overnight.
Next, the liquid is removed and two successive washes are performed with washing buffer. 100 μl of quenching buffer are added, followed by incubating for 15 minutes at room temperature. After washing, 100 μl of […] at room temperature. After washing, 50 μl of primary antibody diluted to 1/250 for pBAD (Cell Signaling Cat#5284) and to 1/500 for Bad (MBL Cat#591) are added to each of the plates. Each plate is incubated for 2 hours at room temperature. After two washes, 50 μl of secondary antibody (diluted to 1/16) are added to the pBAD plate (tebu-bio ref; FE-021) and 50 μl of the HRP-conjugated IgG secondary antibody (Santa Cruz Cat #SC-2004; diluted to 1/1000) are added to the Bad plate. Incubation for 1 hour at room temperature is performed. Four washes with the washing solution are performed, followed by three washes with PBS. Finally, 100 μl of the developing solution are added, followed by incubation for 10 minutes. Finally, 100 μl of the quenching solution are added, before reading at 450 nm.

The next assay addresses T2, Pim-3 (Homo sapiens, UniProt Q86V86).
T2 construct: full-length human recombinant His6-labelled Pim-1, Pim-2 or Pim-3 protein; His6; made in house
The assay can be described thus: TR-FRET assay of Pim kinase activity (phosphorylation of Bad Ser112), Pim-3. Format: biochemical. The settings on record: ATP 40 μM, read-out: IC50 Pim3. In short, it runs like this:
as §3

For a further assay, the target named is CDK1 (Homo sapiens, UniProt P06493). The assay can be described thus: Biochemical results, IC50 CDK1.
In another assay the target is T3, Pim-2 (Homo sapiens, UniProt Q9P1W9).
T3 construct: full-length human recombinant His6-labelled Pim-1, Pim-2 or Pim-3 protein; His6; made in house
Nature of the assay: TR-FRET assay of Pim kinase activity (phosphorylation of Bad Ser112), Pim-2. Format: biochemical. The settings on record: ATP 40 μM, read-out: IC50 Pim2. An outline of the steps: as §3

Another assay addresses PLK1 (Homo sapiens, UniProt P53350). The assay can be described thus: Biochemical results, IC50 PLK1.
Another assay deals with EOL-1. The assay can be described thus: Cell viability assay (CellTiter-Blue), EOL-1.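 Further: EOL-1 is an acute myeloid eosinophilic leukaemia line not a lymphoma.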 The settings on record: Homo sapiens, EOL1, read-out: EC50 EOL-1 μM (eosinophilic leukaemia), EOL-1 cells, read-out: EC50 EOL-1 μM (lymphoma). Format: cell-based.
Description: as §1
Models of Haematological Cancers: • TF-1 (acute myelogenic leukaemia; AML M6 at the time of diagnosis); • K G-1 (AML; erythroleukaemia evolving into AML); • KG-1a (AML; subclone derived from immature KG-1); • EOL-1 (AML: eosinophilic leukaemia); • PL-21 (AML; M3); • ML-2 (AML; T-NHL evolving into T-ALL evolving into AML M4); • HL-60 (AML, M3); • Kasumi-1 (AML); • GDM-1 (AML); • K-562 (CML—chronic myelogenic leukaemia; blastic crisis); • JURL-MK1 (CML; blastic crisis); • DND-41 (T-ALL—T-cell acute lymphoblastic leukaemia); • Jurkat (T-ALL); NALM-6 (B-ALL B-cell ALL); • CEM (ALL; lymphosarcoma evolving into ALL); • Jeko-1 (B-NHL—B-cell non-Hodgkin lymphoma; lymphoma with coat cells derived from a large-cell variant in leukaemic transformation); • WSU-DLCL2 (B-NHL; diffuse lymphoma with large B cells); • RL (B-NHL; undifferentiated diffuse); • OCl-Ly10 (B-NHL); • DoHH-2 (B-NHL); • RPMI-8226 (MM—multiple myelomas); • JVM-2 (B-CLL—B-cell chronic lymphocytic leukaemia); and • JVM-3 (B-CLL).
as §2

CDK1, sequence (P06493 whole entry, species assumed): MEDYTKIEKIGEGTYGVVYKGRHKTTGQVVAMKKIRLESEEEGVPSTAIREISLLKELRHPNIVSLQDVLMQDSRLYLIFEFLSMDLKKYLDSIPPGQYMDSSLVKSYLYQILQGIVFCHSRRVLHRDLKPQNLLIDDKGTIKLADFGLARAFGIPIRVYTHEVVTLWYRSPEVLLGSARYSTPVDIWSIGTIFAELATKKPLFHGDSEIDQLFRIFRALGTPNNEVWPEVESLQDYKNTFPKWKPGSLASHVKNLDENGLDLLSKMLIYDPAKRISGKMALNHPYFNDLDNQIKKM
CDK1, sequence (P14635 whole entry partner, species assumed): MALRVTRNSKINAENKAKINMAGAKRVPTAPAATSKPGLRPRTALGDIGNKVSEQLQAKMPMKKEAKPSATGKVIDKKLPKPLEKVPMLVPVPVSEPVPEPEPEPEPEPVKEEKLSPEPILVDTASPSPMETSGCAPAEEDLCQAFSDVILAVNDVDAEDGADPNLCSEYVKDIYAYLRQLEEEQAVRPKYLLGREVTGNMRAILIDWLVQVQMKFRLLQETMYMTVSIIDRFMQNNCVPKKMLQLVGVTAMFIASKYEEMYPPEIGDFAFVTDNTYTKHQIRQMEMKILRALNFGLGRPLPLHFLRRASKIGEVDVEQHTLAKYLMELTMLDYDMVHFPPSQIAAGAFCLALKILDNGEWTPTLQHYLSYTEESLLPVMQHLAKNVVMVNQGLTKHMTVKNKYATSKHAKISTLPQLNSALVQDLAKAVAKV
T1 sequence (P11309 whole entry): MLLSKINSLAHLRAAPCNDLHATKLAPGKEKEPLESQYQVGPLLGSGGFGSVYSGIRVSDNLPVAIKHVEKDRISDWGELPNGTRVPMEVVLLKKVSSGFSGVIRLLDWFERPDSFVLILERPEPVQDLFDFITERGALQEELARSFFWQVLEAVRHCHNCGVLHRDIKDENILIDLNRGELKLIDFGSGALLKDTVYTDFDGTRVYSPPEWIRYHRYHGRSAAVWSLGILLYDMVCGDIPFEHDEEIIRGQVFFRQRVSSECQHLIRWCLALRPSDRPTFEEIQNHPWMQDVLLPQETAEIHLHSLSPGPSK
T3 sequence (Q9P1W9 whole entry): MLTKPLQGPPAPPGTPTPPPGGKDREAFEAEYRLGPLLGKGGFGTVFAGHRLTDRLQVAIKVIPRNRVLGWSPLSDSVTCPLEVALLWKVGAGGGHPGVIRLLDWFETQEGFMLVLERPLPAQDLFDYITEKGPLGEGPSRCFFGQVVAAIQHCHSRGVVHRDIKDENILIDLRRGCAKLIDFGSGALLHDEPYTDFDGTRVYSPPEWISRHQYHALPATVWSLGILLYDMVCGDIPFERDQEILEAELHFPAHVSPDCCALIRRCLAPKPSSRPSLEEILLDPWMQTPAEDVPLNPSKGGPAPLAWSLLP
PLK1, sequence (P53350 whole entry, species assumed): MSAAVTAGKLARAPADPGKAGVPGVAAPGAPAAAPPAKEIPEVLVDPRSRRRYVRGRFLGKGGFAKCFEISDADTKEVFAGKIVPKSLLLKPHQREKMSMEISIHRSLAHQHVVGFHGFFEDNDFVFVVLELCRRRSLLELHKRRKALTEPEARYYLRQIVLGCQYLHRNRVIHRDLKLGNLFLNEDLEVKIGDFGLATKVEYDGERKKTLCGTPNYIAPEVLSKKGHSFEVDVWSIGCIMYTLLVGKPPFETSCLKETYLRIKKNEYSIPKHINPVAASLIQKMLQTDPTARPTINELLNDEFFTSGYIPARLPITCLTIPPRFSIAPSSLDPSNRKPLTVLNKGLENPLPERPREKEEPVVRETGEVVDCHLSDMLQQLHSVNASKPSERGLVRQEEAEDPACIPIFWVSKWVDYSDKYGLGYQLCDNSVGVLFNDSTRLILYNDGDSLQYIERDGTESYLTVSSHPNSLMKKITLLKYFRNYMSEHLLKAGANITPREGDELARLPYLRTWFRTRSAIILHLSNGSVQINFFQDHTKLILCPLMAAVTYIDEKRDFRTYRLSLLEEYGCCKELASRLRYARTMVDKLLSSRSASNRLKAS

A word on the pEC50: it is −log10 of the EC50, conventionally taken in molar units. As usually defined, the pIC50 is the negative decadic logarithm of the IC50, by convention in mol/L. For the compound `CN(C)CCCN(C)C(=O)c1ccc(-c2c(F)cnc3[nH]c4cnc(-c5cccnc5)cc4c23)cc1` [Example 59, N-[3-(dimethylamino)propyl]-4-[3-fluoro-6-(pyridin-3-yl)-9H-pyrrolo[2,3-b:5,4-c′]dipyridin-4-yl]-N-methylbenzamide], the pEC50 in the assay with MV4-11 and in the assay with EOL-1 was 6.00 to 7.00 in each case. Further, the pIC50 at Pim-1 is greater than 7.00; in the assay with phosphoBAD (DND-41), 5.30 to 6.00; at Pim-3, greater than 7.00; against CDK1, 6.00 to 7.00; at Pim-2 it was 6.00 to 7.00; on PLK1, 5.30 to 6.00.

As to `CN(C)CC(C)(C)CNC(=O)c1ccc(-c2c(F)cnc3[nH]c4cnc(-c5cccnc5)cc4c23)cc1` [Example 52, N-[3-(dimethylamino)-2,2-dimethylpropyl]-4-[3-fluoro-6-(pyridin-3-yl)-9H-pyrrolo[2,3-b:5,4-c′]dipyridin-4-yl]benzamide], the pEC50 in the assay with MV4-11 was 6.00 to 7.00; with EOL-1, greater than 7.00. The negative-log IC50 (pIC50) at Pim-1 was greater than 7.00; with phosphoBAD (DND-41), 6.00 to 7.00; at Pim-3, greater than 7.00; against CDK1 it was 5.30 to 6.00; at Pim-2, 6.00 to 7.00; against PLK1, 6.00 to 7.00.

Consider `NC1(CNC(=O)c2ccc(-c3c(F)cnc4[nH]c5cnc(-c6cccnc6)cc5c34)cc2)CC1` [Example 89, N-[(1-aminocyclopropyl)methyl]-4-[3-fluoro-6-(pyridin-3-yl)-9H-pyrrolo[2,3-b:5,4-c′]dipyridin-4-yl]benzamide], for which the negative logarithm of the EC50 (pEC50) in the assay with MV4-11 and in the assay with EOL-1 was 6.00 to 7.00 throughout. Moreover, the pIC50 is greater than 7.00 on Pim-1; greater than 7.00 on Pim-3; 6.00 to 7.00 at CDK1; greater than 7.00 at Pim-2; 6.00 to 7.00 on PLK1.

As to `CCNCCNC(=O)c1ccc(-c2c(F)cnc3[nH]c4cnc(-c5cccnc5)cc4c23)cc1` [Example 87, N-[2-(ethylamino)ethyl]-4-[3-fluoro-6-(pyridin-3-yl)-9H-pyrrolo[2,3-b:5,4-c′]dipyridin-4-yl]benzamide], the pEC50 in the assay with MV4-11 and in the assay with EOL-1 was 6.00 to 7.00 in each case. Also, the pIC50 at Pim-1 was greater than 7.00; at Pim-3, greater than 7.00; at CDK1, 6.00 to 7.00; at Pim-2, greater than 7.00; against PLK1 it was 6.00 to 7.00.

For `CN1CC(NC(=O)c2ccc(-c3c(F)cnc4[nH]c5cnc(-c6cccnc6)cc5c34)cc2)C1` [Example 56, 4-[3-fluoro-6-(pyridin-3-yl)-9H-pyrrolo[2,3-b:5,4-c′]dipyridin-4-yl]-N-(1-methylazetidin-3-yl)benzamide], the pEC50 with MV4-11 and in the assay with EOL-1 was greater than 7.00 each time. Also, the pIC50 at Pim-1 is greater than 7.00; on Pim-3, greater than 7.00; against CDK1 it was 6.00 to 7.00; at Pim-2, greater than 7.00; at PLK1, 6.00 to 7.00.

In the case of `CN1CCN(NC(=O)c2ccc(-c3c(F)cnc4[nH]c5cnc(-c6cnn(C)c6Cl)cc5c34)cc2)CC1` [Example 106, 4-[6-(5-chloro-1-methyl-1H-pyrazol-4-yl)-3-fluoro-9H-pyrrolo[2,3-b:5,4-c′]dipyridin-4-yl]-N-(4-methylpiperazin-1-yl)benzamide], the negative logarithm of the EC50 (pEC50) with MV4-11 is 6.00 to 7.00; in the assay on EOL-1, greater than 7.00. The pIC50 at Pim-1 was greater than 7.00; at Pim-3, greater than 7.00; against CDK1, 6.00 to 7.00; at Pim-2, greater than 7.00; at PLK1, 5.30 to 6.00.

In the case of `CN1CCC(NC(=O)c2ccc(-c3c(F)cnc4[nH]c5cnc(-c6cnn(C)c6Cl)cc5c34)cc2)CC1` [Example 107, 4-[6-(5-chloro-1-methyl-1H-pyrazol-4-yl)-3-fluoro-9H-pyrrolo[2,3-b:5,4-c′]dipyridin-4-yl]-N-(1-methylpiperidin-4-yl)benzamide], the pEC50 in the assay with MV4-11 and with EOL-1 was 6.00 to 7.00 in each case. Further, the pIC50 was greater than 7.00 at Pim-1; greater than 7.00 on Pim-3; 5.30 to 6.00 against CDK1; greater than 7.00 on Pim-2; less than 5.30 against PLK1.

On to `NCC(F)(F)CNC(=O)c1ccc(-c2c(F)cnc3[nH]c4cnc(-c5cccnc5)cc4c23)cc1` [Example 90, N-(3-amino-2,2-difluoropropyl)-4-[3-fluoro-6-(pyridin-3-yl)-9H-pyrrolo[2,3-b:5,4-c′]dipyridin-4-yl]benzamide], for which the pEC50 with MV4-11 and with EOL-1 was 6.00 to 7.00 in each case. Moreover, the pIC50 on Pim-1 is greater than 7.00; at Pim-3, greater than 7.00; against CDK1 it was 6.00 to 7.00; on Pim-2, 6.00 to 7.00; against PLK1, 6.00 to 7.00.

On to `CN(C)CCNC(=O)c1ccc(-c2c(F)cnc3[nH]c4cnc(-c5cnn(C)c5)cc4c23)cc1` [Example 37, N-[3-(dimethylamino)ethyl]-4-[3-fluoro-6-(1-methyl-1H-pyrazol-4-yl)-9H-pyrrolo[2,3-b:5,4-c′]dipyridin-4-yl]benzamide], for which the negative-log IC50 (pIC50) on Pim-1 was greater than 7.00; in the assay on phosphoBAD (DND-41), 5.30 to 6.00; on Pim-3, greater than 7.00; on CDK1, 6.00 to 7.00; on Pim-2, greater than 7.00; against PLK1, 5.30 to 6.00.

For the compound `COCCOc1cnc2[nH]c3cnc(-c4cccnc4)cc3c2c1-c1ccc(C(=O)NCCN(C)C)cc1` [Example 120, N-[2-(dimethylamino)ethyl]-4-[3-(2-methoxyethoxy)-6-(pyridin-3-yl)-9H-pyrrolo[2,3-b:5,4-c′]dipyridin-4-yl]benzamide], the negative-log EC50 (pEC50) with MV4-11 and in the assay on EOL-1 was greater than 7.00 throughout. Moreover, the negative-log IC50 (pIC50) at Pim-1 is greater than 7.00; in the assay on phosphoBAD (DND-41) it was 6.00 to 7.00; at Pim-3 it was greater than 7.00; at Pim-2, greater than 7.00.
